Measurements from ChEMBL document CHEMBL1159000, “Anti-AIDS agents, 4. Tripterifordin, a novel anti-HIV principle from Tripterygium wilfordii: isolation and structural elucidation” (J Nat Prod, 1992).
Converted amounts (≈) assume the structure as drawn.

Key:
[1] = tested on: H9; experiment: Inhibition human H9 cell growth assessed as cell density at 15 uM after 3 days by cell count assay; assay type: cell-based; conditions: h9, 72 h
[2] = tested on: Human immunodeficiency virus 1; experiment: Antiviral activity against HIV1 3B replication in human H9 cells after 1 hr by p24 antigen capture assay; assay type: functional, organism-based; conditions: Human immunodeficiency virus 1, 3B, H9, 1 h

EC50 [2]: 1 µg/mL (≈ 3.14 µM)
Compound: C[C@@]1(O)C[C@@]23CC[C@H]4[C@@]5(CCC[C@]4(C)C(=O)OC5)[C@@H]2CC[C@H]1C3 [TRIPTERIFORDIN]
Activity [1]: Non-toxic
